In paper PMC3530532, “Corticosteroid-Binding Globulin: Structure-Function Implications from Species Differences” (PLoS ONE, 2012):
Read-outs that look alike come from different tables or passages of the source.

Assays:
human CBG = target: human CBG; set-up: method as in PMID 20631013; conditions: 37°C, fluorescence measurements; cited from earlier work
uncleaved human CBG = target: uncleaved human CBG; set-up: method as in PMID 21325280; conditions: cited from earlier work
Human CBG-WT = target: T1, Human CBG-WT (Homo sapiens, UniProt P08185, K148A); assay: Isothermal titration calorimetry, steroid titrated to uncleaved human CBG-WT; format: binding; conditions: ITC, 25°C
T1 construct: residues 11 to 383 of human CBG (Swiss-Prot entry P08185); GST (N, cleaved yes); made in house; host or cells: E. coli BL21 Star (DE3)
T1 sequence (P08185 33-405 K148A): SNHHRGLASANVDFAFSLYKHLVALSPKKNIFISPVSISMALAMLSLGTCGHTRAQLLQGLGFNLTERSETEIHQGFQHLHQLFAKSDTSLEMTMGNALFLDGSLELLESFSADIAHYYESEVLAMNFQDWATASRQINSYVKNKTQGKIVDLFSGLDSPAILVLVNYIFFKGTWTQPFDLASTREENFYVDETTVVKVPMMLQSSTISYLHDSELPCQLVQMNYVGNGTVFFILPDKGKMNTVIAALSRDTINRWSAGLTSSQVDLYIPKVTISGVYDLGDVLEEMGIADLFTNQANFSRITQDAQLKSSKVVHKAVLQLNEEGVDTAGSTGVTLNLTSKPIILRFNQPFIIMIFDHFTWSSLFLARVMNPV
Experimental: The coding sequences of residues 11 to 383 of human CBG (Swiss-Prot entry P08185) and residues 5 to 374 of rat CBG (P31211) were cloned into a pGEX-2T vector (GE Healthcare, Uppsala), yielding N-terminal glutathione-S-transferase (GST) fusion proteins. Mutations were introduced using a two-stage PCR procedure based on the QuikChange (Stratagene, Santa Clara) site-directed mutagenesis protocol. All experiments with human CBG were conducted with a mutant in which surface residue Lys126 was replaced by alanine in order to facilitate crystallization. Wild-type rat CBG (rat CBG-WT) and rat CBG mutants CBG-RCL1, CBG-RCL2 and CBG-RCL3 were produced to probe the function of the RCL residues in rat CBG. All gene constructs were confirmed by DNA sequencing prior to protein production.
The GST-tagged human and rat CBG variants were produced in E. coli BL21 Star™ (DE3) cells (Invitrogen, Carlsbad) using the ZYM-5052 auto-inducing medium. For each variant, 10 L of ZYM-5052 medium containing 100 µg/mL ampicillin were inoculated with an overnight culture of a single clone. The flasks were incubated at 37°C until the optical density at 600 nm reached 0.3. The temperature was then lowered to 20°C, and the cells were allowed to grow for an additional 20 h. The pellet was resuspended in PBS buffer (pH 7.4) containing 5 mM EDTA after cell harvesting (4 mL of buffer per gram of pellet).
The protein samples were dialyzed against ITC buffer (20 mM potassium phosphate, 50 mM NaCl, pH 7.4) and titrated with steroids in a VP-ITC microcalorimeter (Microcal, Piscataway). All solutions were filtered (0.2 µm filter pore size) and degassed for 30 min prior to the titration experiments. The sample cell was filled with protein solution containing 15 µM rat CBG or 20 µM human CBG and titrated with steroid solutions containing 150 µM and 200 µM ligand, respectively. The titrations consisted of an initial injection of 2 µL followed by 25 consecutive injections of 10 µL ligand solution at 25°C. A spacing of 240 sec between the injections was used to allow a return to the baseline. Data points from the initial injection, which are generally affected by diffusion during the initial equilibration period after experiment setup, were discarded prior to data analysis. […] The binding curve was generated by plotting the heats of injections against the ratio of ligand to protein in the cell. Integrated heat data were analyzed using nonlinear regression fit with a one-site-binding model in the Origin-7™ software provided with the VP-ITC. Changes in the free energy and entropy can be calculated using the equation: ΔG° = −RTlnK = ΔH°−TΔS°. In this equation ΔG° is the change in Gibbs free energy, R the universal gas constant, T the temperature, and K the association constant. […]

cleaved human CBG = target: cleaved human CBG; set-up: method as in PMID 21325280; conditions: 37°C, cited from earlier work
Cleaved rat CBG-RCL1 = target: T2, Cleaved rat CBG-RCL1 (Rattus norvegicus, UniProt P31211, A357V/P358T); assay: Isothermal titration calorimetry, steroid titrated to neutrophil elastase-cleaved rat CBG-RCL1; format: binding
T2 construct: residues 5 to 374 of rat CBG (P31211); GST (N, cleaved yes); made in house; host or cells: E. coli BL21 Star (DE3)
T2 sequence (P31211 27-396 A357V/P358T limits assumed): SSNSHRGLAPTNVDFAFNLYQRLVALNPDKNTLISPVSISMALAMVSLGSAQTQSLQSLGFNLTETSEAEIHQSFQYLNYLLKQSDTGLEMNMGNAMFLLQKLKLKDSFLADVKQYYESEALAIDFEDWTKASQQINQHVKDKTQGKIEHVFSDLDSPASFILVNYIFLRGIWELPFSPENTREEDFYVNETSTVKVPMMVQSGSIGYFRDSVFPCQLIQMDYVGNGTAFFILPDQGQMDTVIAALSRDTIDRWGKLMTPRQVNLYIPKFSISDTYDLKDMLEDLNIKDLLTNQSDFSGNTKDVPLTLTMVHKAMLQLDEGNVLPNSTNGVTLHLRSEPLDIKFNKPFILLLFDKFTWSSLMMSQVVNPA
Experimental: Cleavage of the RCL in human and rat CBG mutants was accomplished with 100 mU human neutrophil elastase (Sigma-Aldrich) per mg purified CBG at 30°C and monitored by SDS-PAGE. The cleavage reaction was stopped with AEBSF.
The protein samples were dialyzed against ITC buffer (20 mM potassium phosphate, 50 mM NaCl, pH 7.4) and titrated with steroids in a VP-ITC microcalorimeter (Microcal, Piscataway). All solutions were filtered (0.2 µm filter pore size) and degassed for 30 min prior to the titration experiments. The sample cell was filled with protein solution containing 15 µM rat CBG or 20 µM human CBG and titrated with steroid solutions containing 150 µM and 200 µM ligand, respectively. The titrations consisted of an initial injection of 2 µL followed by 25 consecutive injections of 10 µL ligand solution at 25°C. A spacing of 240 sec between the injections was used to allow a return to the baseline. Data points from the initial injection, which are generally affected by diffusion during the initial equilibration period after experiment setup, were discarded prior to data analysis. […] The binding curve was generated by plotting the heats of injections against the ratio of ligand to protein in the cell. Integrated heat data were analyzed using nonlinear regression fit with a one-site-binding model in the Origin-7™ software provided with the VP-ITC. Changes in the free energy and entropy can be calculated using the equation: ΔG° = −RTlnK = ΔH°−TΔS°. In this equation ΔG° is the change in Gibbs free energy, R the universal gas constant, T the temperature, and K the association constant. The change in enthalpy is denoted as ΔH°, and ΔS° is the change in entropy under standard conditions. The data shown in Table 2 were obtained from single titrations of each complex.

[1] = ITC, 25°C, cleaved rat CBG-RCL1

## C[C@]12CCC(=O)C=C1CC[C@@H]1[C@@H]2[C@@H](O)C[C@@]2(C)[C@H]1CC[C@]2(O)C(=O)CO [Hydrocortisone]
Human CBG
  Kd: 18 nM
Uncleaved human CBG; 22°C, uncleaved human CBG, fluorescence titration, read-out: binding affinity
  Kd: 26.9 nM
Uncleaved human CBG; 37°C, uncleaved human CBG-WT, read-out: K d 37°C
  Kd: 292 ± 19 nM
Human CBG-WT; single titration, uncleaved human CBG-WT (K126A, E. coli produced)
  Kd: 45 ± 7 nM
Human CBG-WT; uncleaved human CBG-WT
  TΔS°: -26.08 kcal/mol
  ΔG°: -10.1 kcal/mol
  ΔH°: -36.14 kcal/mol
Cleaved human CBG; cleaved human CBG-WT, read-out: K d 37°C
  Kd: 1370 ± 124 nM
Cleaved human CBG; fluorescence titration
  difference of affinities of uncleaved and cleaved human CBG: about 4.7 fold
Cleaved rat CBG-RCL1; [1]
  TΔS°: -30.43 kcal/mol
  ΔG°: -9.2 kcal/mol
  ΔH°: -39.63 kcal/mol
Cleaved rat CBG-RCL1; ITC, 25°C, single titration, cleaved rat CBG-RCL1
  Kd: 209 ± 20 nM
Cleaved rat CBG-RCL1; rat CBG, uncleaved vs cleaved rat CBG-RCL1, ITC 25°C
  decrease in binding affinity upon RCL cleavage: about 2 fold
